We go through 17 molecules from ChEMBL document CHEMBL1131880, “Synthesis and in vitro cytotoxicity of hexacyclic camptothecin analogues” (Bioorg Med Chem Lett, 1999).

The subject of one assay is Caov-3 cell line. Description: In vitro cytotoxicity against human tumor cell line CAOV-3. The class given is functional, cell-based.
Usually IC50 stands for the concentration needed to halve the response being measured. Read a high IC50 as weaker potency. Turning to `CCC(C)CNCCc1c2c(nc3cc4c(cc13)OCCO4)-c1cc3c(c(=O)n1C2)COC(=O)C3(O)CC` (stereo not drawn), the half-maximal inhibitory concentration (IC50) is 3500 nM.

The molecule `CCC(C)NCCc1c2c(nc3cc4c(cc13)OCO4)-c1cc3c(c(=O)n1C2)COC(=O)C3(O)CC` (stereo not drawn) displayed an IC50 of 1510 nM.

As to `CCC(C)CNCCc1c2c(nc3cc4c(cc13)OCO4)-c1cc3c(c(=O)n1C2)COC(=O)C3(O)CC` (stereo not drawn), the half-maximal inhibitory concentration (IC50) amounted to 6570 nM.

Regarding `CCN(CC)CCNCCc1c2c(nc3cc4c(cc13)OCCO4)-c1cc3c(c(=O)n1C2)COC(=O)C3(O)CC` (stereo not drawn), the IC50 is greater than 100000 nM.

The molecule `CCCNCCc1c2c(nc3cc4c(cc13)OCCO4)-c1cc3c(c(=O)n1C2)COC(=O)C3(O)CC` (stereo not drawn) displayed an IC50 greater than 100000 nM.

The molecule `CCCCNCCc1c2c(nc3cc4c(cc13)OCO4)-c1cc3c(c(=O)n1C2)COC(=O)C3(O)CC` (stereo not drawn) gave an IC50 of 62000 nM.

`CCC1(O)C(=O)OCc2c1cc1n(c2=O)Cc2c-1nc1cc3c(cc1c2CCNC(C)C)OCCO3` (stereo not drawn): the IC50 is 2320 nM.

The molecule `CCC1(O)C(=O)OCc2c1cc1n(c2=O)Cc2c-1nc1cc3c(cc1c2CCNCC(C)C)OCCO3` (stereo not drawn) returned an IC50 of 7120 nM.

For `CC[C@@]1(O)C(=O)OCc2c1cc1n(c2=O)Cc2cc3ccccc3nc2-1` [CAMPTOTHECIN], the IC50 was 2.9 nM.

`CCC(C)NCCc1c2c(nc3cc4c(cc13)OCCO4)-c1cc3c(c(=O)n1C2)COC(=O)C3(O)CC` (stereo not drawn): the IC50 was 2000 nM.

As to `CCNCCc1c2c(nc3cc4c(cc13)OCO4)-c1cc3c(c(=O)n1C2)COC(=O)C3(O)CC` (stereo not drawn), inhibition was half-maximal at 33000 nM (IC50).

Consider `CCC1(O)C(=O)OCc2c1cc1n(c2=O)Cc2c-1nc1cc3c(cc1c2CCNCC(C)C)OCO3` (stereo not drawn), for which the 50% inhibitory concentration (IC50) was 21900 nM.

Molecule `CCCNCCc1c2c(nc3cc4c(cc13)OCO4)-c1cc3c(c(=O)n1C2)COC(=O)C3(O)CC` (stereo not drawn) showed an IC50 of 63000 nM.

Molecule `CCCCNCCc1c2c(nc3cc4c(cc13)OCCO4)-c1cc3c(c(=O)n1C2)COC(=O)C3(O)CC` (stereo not drawn) registered an IC50 of 7120 nM.

The test system of the next assay is A549. The assay can be described thus: In vitro cytotoxicity against human tumor cell line A549. The class given is functional, cell-based.
Molecule `CCC1(O)C(=O)OCc2c1cc1n(c2=O)Cc2c-1nc1ccccc1c2CCNC(C)C` (stereo not drawn) showed an IC50 of 0.26 nM.

In turn, `CC[C@@]1(O)C(=O)OCc2c1cc1n(c2=O)Cc2cc3ccccc3nc2-1` [CAMPTOTHECIN] gave an IC50 of 0.33 nM.

On to `CCNCCc1c2c(nc3cc4c(cc13)OCCO4)-c1cc3c(c(=O)n1C2)COC(=O)C3(O)CC` (stereo not drawn), for which the IC50 was 0.5 nM.

For the molecule `CCNCCc1c2c(nc3cc4c(cc13)OCO4)-c1cc3c(c(=O)n1C2)COC(=O)C3(O)CC` (stereo not drawn), the half-inhibitory concentration (IC50) was determined as 0.094 nM.

Molecule `CCCNCCc1c2c(nc3cc4c(cc13)OCO4)-c1cc3c(c(=O)n1C2)COC(=O)C3(O)CC` (stereo not drawn) had an IC50 of 0.11 nM.

In the next assay the test system is KATO III stomach cancer cell line. Description: In vitro cytotoxicity against human tumor cell line KATO-III. The class given is functional, cell-based.
In turn, `CCC1(O)C(=O)OCc2c1cc1n(c2=O)Cc2c-1nc1ccccc1c2CCNC(C)C` (stereo not drawn) returned an IC50 of 1.6 nM.

The molecule `CCC1(O)C(=O)OCc2c1cc1n(c2=O)Cc2c-1nc1cc3c(cc1c2CCNC(C)C)OCO3` (stereo not drawn) came in with an IC50 of 45 nM.

On to `CC[C@@]1(O)C(=O)OCc2c1cc1n(c2=O)Cc2cc3ccccc3nc2-1` [CAMPTOTHECIN], for which the midpoint of inhibition, the IC50, lay at 46 nM.

Turning to `CCNCCc1c2c(nc3cc4c(cc13)OCO4)-c1cc3c(c(=O)n1C2)COC(=O)C3(O)CC` (stereo not drawn), the IC50 was 2.9 nM.

The next assay relates to DLD-1. Description: In vitro cytotoxicity against human tumor cell line DLD-1. The class given is functional, cell-based.
As for `CCC1(O)C(=O)OCc2c1cc1n(c2=O)Cc2c-1nc1ccccc1c2CCNC(C)C` (stereo not drawn), the IC50 amounted to 7.3 nM.

Consider `CCC1(O)C(=O)OCc2c1cc1n(c2=O)Cc2c-1nc1cc3c(cc1c2CCNC(C)C)OCO3` (stereo not drawn), for which the IC50 stood at 8.9 nM.

For the molecule `CC[C@@]1(O)C(=O)OCc2c1cc1n(c2=O)Cc2cc3ccccc3nc2-1` [CAMPTOTHECIN], half-maximal inhibition (IC50) required 14 nM.

In the case of `CCCNCCc1c2c(nc3cc4c(cc13)OCO4)-c1cc3c(c(=O)n1C2)COC(=O)C3(O)CC` (stereo not drawn), the IC50 was found to be 26 nM.

A further assay relates to HEC-1B cell line. The assay can be described thus: In vitro cytotoxicity against human tumor cell line HEC-1-B. The class given is functional, cell-based.
`CCC(C)CNCCc1c2c(nc3cc4c(cc13)OCCO4)-c1cc3c(c(=O)n1C2)COC(=O)C3(O)CC` (stereo not drawn) displayed an IC50 of 3440 nM.

For `CCC(C)NCCc1c2c(nc3cc4c(cc13)OCO4)-c1cc3c(c(=O)n1C2)COC(=O)C3(O)CC` (stereo not drawn), half-maximal inhibition (IC50) required 14800 nM.

As to `CCC(C)CNCCc1c2c(nc3cc4c(cc13)OCO4)-c1cc3c(c(=O)n1C2)COC(=O)C3(O)CC` (stereo not drawn), the IC50 worked out at 2710 nM.

For `CCN(CC)CCNCCc1c2c(nc3cc4c(cc13)OCCO4)-c1cc3c(c(=O)n1C2)COC(=O)C3(O)CC` (stereo not drawn), the IC50 was 12100 nM.

With `CCCNCCc1c2c(nc3cc4c(cc13)OCCO4)-c1cc3c(c(=O)n1C2)COC(=O)C3(O)CC` (stereo not drawn), the IC50 was greater than 100000 nM.

On to `CCCCNCCc1c2c(nc3cc4c(cc13)OCO4)-c1cc3c(c(=O)n1C2)COC(=O)C3(O)CC` (stereo not drawn), for which the IC50 worked out at 4680 nM.

Consider `CCC1(O)C(=O)OCc2c1cc1n(c2=O)Cc2c-1nc1cc3c(cc1c2CCNC(C)C)OCCO3` (stereo not drawn), for which the IC50 is 12800 nM.

`CCC1(O)C(=O)OCc2c1cc1n(c2=O)Cc2c-1nc1cc3c(cc1c2CCNC(C)C)OCO3` (stereo not drawn) yielded an IC50 of 670 nM.

As to `CCC1(O)C(=O)OCc2c1cc1n(c2=O)Cc2c-1nc1cc3c(cc1c2CCNCC(C)C)OCCO3` (stereo not drawn), the IC50 is 3650 nM.

`CC[C@@]1(O)C(=O)OCc2c1cc1n(c2=O)Cc2cc3ccccc3nc2-1` [CAMPTOTHECIN]: the IC50 stood at 60 nM.

Molecule `CCNCCc1c2c(nc3cc4c(cc13)OCCO4)-c1cc3c(c(=O)n1C2)COC(=O)C3(O)CC` (stereo not drawn) came in with a 50% inhibitory concentration (IC50) of 190 nM.

Take `CCC(C)NCCc1c2c(nc3cc4c(cc13)OCCO4)-c1cc3c(c(=O)n1C2)COC(=O)C3(O)CC` (stereo not drawn): the IC50 is 3290 nM.

In turn, `CCNCCc1c2c(nc3cc4c(cc13)OCO4)-c1cc3c(c(=O)n1C2)COC(=O)C3(O)CC` (stereo not drawn) showed an IC50 of 6060 nM.

As for `CCC1(O)C(=O)OCc2c1cc1n(c2=O)Cc2c-1nc1cc3c(cc1c2CCNCC(C)C)OCO3` (stereo not drawn), the IC50 stood at 10000 nM.

As for `CCCNCCc1c2c(nc3cc4c(cc13)OCO4)-c1cc3c(c(=O)n1C2)COC(=O)C3(O)CC` (stereo not drawn), the midpoint of inhibition, the IC50, lay at 2110 nM.

With `CCCCNCCc1c2c(nc3cc4c(cc13)OCCO4)-c1cc3c(c(=O)n1C2)COC(=O)C3(O)CC` (stereo not drawn), the IC50 came out at 3650 nM.
